Columns and labels:
Assay type in all cases: biochemical
[1] = target: NEK7 (Homo sapiens, UniProt Q8TDX7); test: kinase inhibition, NEK7
[2] = target: NEK6 (Homo sapiens, UniProt Q9HC98); test: kinase inhibition, NEK6
[3] = target: T1, NEK9 (Homo sapiens, UniProt Q8TD19); test: kinase inhibition, NEK9
T1 sequence (Q8TD19 1-979): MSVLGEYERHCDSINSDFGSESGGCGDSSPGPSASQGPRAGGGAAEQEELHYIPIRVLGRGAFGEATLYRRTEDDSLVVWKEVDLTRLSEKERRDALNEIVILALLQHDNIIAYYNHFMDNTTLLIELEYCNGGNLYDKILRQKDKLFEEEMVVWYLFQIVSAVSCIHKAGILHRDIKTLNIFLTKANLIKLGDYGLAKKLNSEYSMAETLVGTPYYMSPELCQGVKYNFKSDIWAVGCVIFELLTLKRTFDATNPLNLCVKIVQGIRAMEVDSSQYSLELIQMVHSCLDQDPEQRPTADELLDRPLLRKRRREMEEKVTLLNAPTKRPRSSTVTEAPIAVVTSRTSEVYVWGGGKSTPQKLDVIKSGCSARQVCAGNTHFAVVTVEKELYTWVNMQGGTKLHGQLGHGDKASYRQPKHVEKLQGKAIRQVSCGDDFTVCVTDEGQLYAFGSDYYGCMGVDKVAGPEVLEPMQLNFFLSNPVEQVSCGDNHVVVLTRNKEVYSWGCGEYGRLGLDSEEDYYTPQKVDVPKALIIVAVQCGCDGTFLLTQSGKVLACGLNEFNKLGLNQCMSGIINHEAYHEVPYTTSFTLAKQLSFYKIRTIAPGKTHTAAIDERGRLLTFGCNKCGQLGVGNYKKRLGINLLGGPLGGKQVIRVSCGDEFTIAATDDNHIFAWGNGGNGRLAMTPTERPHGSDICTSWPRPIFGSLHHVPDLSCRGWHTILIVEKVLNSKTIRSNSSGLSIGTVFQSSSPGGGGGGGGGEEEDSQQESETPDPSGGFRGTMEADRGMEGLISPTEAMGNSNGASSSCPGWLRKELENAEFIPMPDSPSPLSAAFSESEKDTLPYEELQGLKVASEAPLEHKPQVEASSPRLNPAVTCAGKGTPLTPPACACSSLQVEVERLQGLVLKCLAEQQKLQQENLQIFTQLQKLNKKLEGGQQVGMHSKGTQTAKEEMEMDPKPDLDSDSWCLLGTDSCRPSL

[4] = target: T2, NEK2 (Homo sapiens, UniProt P51955); test: kinase inhibition, NEK2
T2 sequence (P51955 1-445): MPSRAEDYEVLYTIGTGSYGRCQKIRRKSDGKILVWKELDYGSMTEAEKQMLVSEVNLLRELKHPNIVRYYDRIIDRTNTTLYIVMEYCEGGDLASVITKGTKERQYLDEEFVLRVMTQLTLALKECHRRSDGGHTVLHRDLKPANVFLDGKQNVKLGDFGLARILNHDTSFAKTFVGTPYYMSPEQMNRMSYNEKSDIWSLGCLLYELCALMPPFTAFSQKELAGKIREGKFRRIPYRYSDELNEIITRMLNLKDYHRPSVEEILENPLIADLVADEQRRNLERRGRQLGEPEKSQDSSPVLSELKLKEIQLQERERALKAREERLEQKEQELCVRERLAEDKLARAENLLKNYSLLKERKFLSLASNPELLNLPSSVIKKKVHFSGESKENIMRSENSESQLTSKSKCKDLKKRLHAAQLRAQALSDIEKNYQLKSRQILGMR

[5] = target: T3, DMPK (Homo sapiens, UniProt Q09013); test: kinase inhibition, DMPK
T3 sequence (Q09013 1-629): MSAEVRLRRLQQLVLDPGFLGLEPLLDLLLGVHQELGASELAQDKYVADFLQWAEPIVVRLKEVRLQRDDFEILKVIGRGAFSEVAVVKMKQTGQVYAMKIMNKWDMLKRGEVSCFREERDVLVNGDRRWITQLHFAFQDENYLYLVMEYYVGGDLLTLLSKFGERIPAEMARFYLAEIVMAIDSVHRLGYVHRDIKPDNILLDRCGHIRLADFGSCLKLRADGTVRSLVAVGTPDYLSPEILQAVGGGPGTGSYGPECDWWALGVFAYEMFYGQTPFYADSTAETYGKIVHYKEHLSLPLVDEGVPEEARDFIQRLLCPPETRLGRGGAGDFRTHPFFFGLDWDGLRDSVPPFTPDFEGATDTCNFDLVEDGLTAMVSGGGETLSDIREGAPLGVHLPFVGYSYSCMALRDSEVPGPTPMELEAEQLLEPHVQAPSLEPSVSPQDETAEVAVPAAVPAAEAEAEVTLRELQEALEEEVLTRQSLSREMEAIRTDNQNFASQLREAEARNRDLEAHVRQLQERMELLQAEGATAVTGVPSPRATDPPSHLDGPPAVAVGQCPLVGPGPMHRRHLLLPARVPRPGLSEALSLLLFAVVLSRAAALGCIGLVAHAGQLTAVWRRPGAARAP

[6] = target: CLK; test: kinase inhibition, CLK
[7] = target: SLK (Homo sapiens, UniProt Q9H2G2); test: kinase inhibition, SLK
Chain of SLK (Q9H2G2 whole entry): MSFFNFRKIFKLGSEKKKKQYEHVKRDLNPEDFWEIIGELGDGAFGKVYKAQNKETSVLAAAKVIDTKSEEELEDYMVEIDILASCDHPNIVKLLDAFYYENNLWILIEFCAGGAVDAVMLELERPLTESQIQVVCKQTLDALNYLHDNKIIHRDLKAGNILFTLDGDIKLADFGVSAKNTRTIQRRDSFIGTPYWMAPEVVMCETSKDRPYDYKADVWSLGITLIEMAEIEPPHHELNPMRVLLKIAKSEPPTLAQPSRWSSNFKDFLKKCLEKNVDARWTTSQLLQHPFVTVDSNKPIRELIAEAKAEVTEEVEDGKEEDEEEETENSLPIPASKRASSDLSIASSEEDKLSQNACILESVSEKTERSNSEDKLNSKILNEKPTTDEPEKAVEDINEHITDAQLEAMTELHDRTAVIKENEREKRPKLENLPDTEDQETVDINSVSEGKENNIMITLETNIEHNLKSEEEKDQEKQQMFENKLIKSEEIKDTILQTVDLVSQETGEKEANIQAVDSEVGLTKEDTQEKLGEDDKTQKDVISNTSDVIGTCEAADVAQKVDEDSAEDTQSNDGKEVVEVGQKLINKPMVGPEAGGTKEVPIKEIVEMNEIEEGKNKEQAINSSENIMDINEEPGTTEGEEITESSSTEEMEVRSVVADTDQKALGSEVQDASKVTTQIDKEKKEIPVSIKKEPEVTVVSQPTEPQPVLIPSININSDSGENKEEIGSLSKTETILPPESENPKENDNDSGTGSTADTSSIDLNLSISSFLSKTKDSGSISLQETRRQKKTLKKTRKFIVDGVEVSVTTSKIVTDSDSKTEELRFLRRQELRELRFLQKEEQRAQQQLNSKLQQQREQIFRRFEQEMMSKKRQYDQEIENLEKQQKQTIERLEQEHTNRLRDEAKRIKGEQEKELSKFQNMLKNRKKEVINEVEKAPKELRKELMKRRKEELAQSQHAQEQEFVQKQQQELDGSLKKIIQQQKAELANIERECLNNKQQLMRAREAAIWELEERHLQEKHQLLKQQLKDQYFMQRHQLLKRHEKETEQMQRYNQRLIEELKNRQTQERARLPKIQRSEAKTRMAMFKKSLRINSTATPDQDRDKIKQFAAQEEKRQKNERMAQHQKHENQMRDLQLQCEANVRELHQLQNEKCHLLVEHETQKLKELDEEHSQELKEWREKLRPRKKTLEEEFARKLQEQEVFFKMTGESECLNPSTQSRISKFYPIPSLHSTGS

Chain of NEK7 (Q8TDX7 whole entry, species assumed): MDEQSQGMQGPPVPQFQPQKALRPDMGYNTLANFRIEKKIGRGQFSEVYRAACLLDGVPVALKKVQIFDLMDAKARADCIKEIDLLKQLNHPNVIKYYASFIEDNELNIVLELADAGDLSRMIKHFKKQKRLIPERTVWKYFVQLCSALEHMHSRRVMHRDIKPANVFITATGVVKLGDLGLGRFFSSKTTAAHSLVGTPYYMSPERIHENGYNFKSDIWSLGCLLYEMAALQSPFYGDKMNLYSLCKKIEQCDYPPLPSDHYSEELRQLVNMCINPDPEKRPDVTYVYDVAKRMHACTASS
Chain of NEK6 (Q9HC98 whole entry, species assumed): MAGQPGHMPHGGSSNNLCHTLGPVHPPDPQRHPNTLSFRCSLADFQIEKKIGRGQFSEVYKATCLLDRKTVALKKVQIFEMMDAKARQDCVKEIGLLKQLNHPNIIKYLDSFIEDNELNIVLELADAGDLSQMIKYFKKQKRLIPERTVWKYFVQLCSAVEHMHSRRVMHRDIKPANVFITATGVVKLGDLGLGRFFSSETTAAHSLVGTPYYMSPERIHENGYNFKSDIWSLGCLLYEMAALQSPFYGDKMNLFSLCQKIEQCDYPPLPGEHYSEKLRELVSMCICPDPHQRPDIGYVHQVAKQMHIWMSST

| IC50 [1] [nM] | IC50 [2] [nM] | IC50 [4] [nM] | IC50 [5] [nM] | IC50 [6] [nM] | IC50 [7] [nM] | SMILES | IC50 [3] [nM] |
| --- | --- | --- | --- | --- | --- | --- | --- |
|  |  | 50 to 250 |  |  |  | CN1C(=O)C2Cc3ccccc3N2c2nc(Nc3cc(N4CCOCC4)cc(N4CCOCC4)c3)ncc21 (stereo not drawn) [Compound I-31] | 50 to 250 |
|  |  | 1000 to 5000 |  |  |  | COc1cc(N2CCOCC2)ccc1Nc1ncc2c(n1)N1c3ccccc3CC1C(=O)N2C (stereo not drawn) [Compound I-33] | 250 to 1000 |
|  |  | 50 to 250 |  |  |  | CN1C(=O)C2Cc3ccccc3N2c2nc(Nc3ccc(N4CCOCC4)cc3)ncc21 (stereo not drawn) [Compound I-32] | 50 to 250 |
|  |  | ≤ 50 |  |  |  | CN1C(=O)C2Cc3ccccc3N2c2nc(Nc3ccc(N4CCC(N5CCOCC5)CC4)cc3)ncc21 (stereo not drawn) [Compound I-29] | ≤ 50 |
|  |  | 50 to 250 |  |  |  | CCN1CCN(c2ccc(Nc3ncc4c(n3)N3c5ccccc5CC3C(=O)N4C)cc2)CC1 (stereo not drawn) [Compound I-28] | ≤ 50 |
|  |  | 250 to 1000 |  |  |  | CCn1c(=O)c2cc3ccccc3n2c2nc(Nc3ccc(N4CCN(C)CC4)c(C(F)(F)F)c3)ncc21 [Compound I-27] | 250 to 1000 |
|  |  | 250 to 1000 |  |  |  | COc1cc(N2CCN(C)CC2)ccc1Nc1ncc2c(n1)N1c3ccccc3CC1C(=O)N2C (stereo not drawn) [Compound I-30] | 50 to 250 |

The remaining lines, values behind:

| SMILES | IC50 [1] [nM] | IC50 [2] [nM] | IC50 [4] [nM] | IC50 [5] [nM] | IC50 [6] [nM] | IC50 [7] [nM] | IC50 [3] [nM] |
| --- | --- | --- | --- | --- | --- | --- | --- |
| CC(C)Oc1cc(N2CCC(O)CC2)ccc1Nc1ncc2c(n1)n1c(cc3ccccc31)c(=O)n2C [Compound I-19] | 250 to 1000 | 1000 to 5000 | ≥ 5000 | ≥ 5000 | ≥ 5000 |  | ≥ 5000 |
| CCN1CCN(c2ccc(Nc3ncc4c(n3)n3c(cc5ccccc53)c(=O)n4C)c(OC)c2)CC1 [Compound I-15] | 250 to 1000 | 250 to 1000 | ≤ 50 | 250 to 1000 | 250 to 1000 |  | 50 to 250 |
| Cn1c(=O)c2cc3ccccc3n2c2nc(Nc3cnn(CC(F)F)c3)ncc21 [Compound I-11] | 1000 to 5000 | ≥ 5000 | 250 to 1000 | 1000 to 5000 | ≥ 5000 |  | 50 to 250 |
| COc1cc(N2CCC(N3CCN(C)CC3)CC2)ccc1Nc1ncc2c(n1)n1c(cc3ccccc31)c(=O)n2C [Compound I-9] | 250 to 1000 | 250 to 1000 | 50 to 250 | 1000 to 5000 | 250 to 1000 |  | ≤ 50 |
| CN1CCN(c2ccc(Nc3ncc4c(n3)n3c(cc5ccccc53)c(=O)n4C)c(C(F)(F)F)c2)CC1 [Compound I-13] | 250 to 1000 | 1000 to 5000 | 50 to 250 | ≥ 5000 | ≥ 5000 |  | 1000 to 5000 |
| Cn1c(=O)c2cc3ccccc3n2c2nc(Nc3ccc(N4CCOCC4)nc3)ncc21 [Compound I-22] | 250 to 1000 | 1000 to 5000 | 50 to 250 | 250 to 1000 | 250 to 1000 |  | 50 to 250 |
| CCOc1cc(N2CCC(O)CC2)ccc1Nc1ncc2c(n1)n1c(cc3ccccc31)c(=O)n2C [Compound I-18] | 250 to 1000 | 250 to 1000 | 50 to 250 | ≥ 5000 | ≥ 5000 |  | 250 to 1000 |
| CN1CCN(C2CCN(c3ccc(Nc4ncc5c(n4)n4c(cc6ccccc64)c(=O)n5C)cn3)CC2)CC1 [Compound I-23] | 250 to 1000 | 250 to 1000 | ≤ 50 | 50 to 250 | 50 to 250 |  | ≤ 50 |
| Cn1c(=O)c2cc3ccccc3n2c2nc(Nc3cc(N4CCOCC4)cc(N4CCOCC4)c3)ncc21 [Compound I-21] | 250 to 1000 | 250 to 1000 | ≤ 50 | 250 to 1000 | 250 to 1000 |  | 50 to 250 |
| Cn1c(=O)c2cc3ccccc3n2c2nc(Nc3ccc(N4CCC(N5CCOCC5)CC4)cc3)ncc21 [Compound I-17] |  | 250 to 1000 | ≤ 50 | 50 to 250 | 50 to 250 | 50 to 250 | ≤ 50 |
| CCN1CCN(c2ccc(Nc3ncc4c(n3)n3c(cc5ccccc53)c(=O)n4C)cc2)CC1 [Compound I-16] | 250 to 1000 | 250 to 1000 | ≤ 50 | 50 to 250 | 50 to 250 |  | ≤ 50 |
| COc1cc(C(=O)N2CCOCC2)ccc1Nc1ncc2c(n1)n1c(cc3ccccc31)c(=O)n2C [Compound I-14] | 50 to 250 | 1000 to 5000 | 50 to 250 | 250 to 1000 | ≥ 5000 |  | ≤ 50 |
| Cn1c(=O)c2cc3ccccc3n2c2nc(Nc3cnn(CCN4CCOCC4)c3)ncc21 [Compound I-10] | 1000 to 5000 | ≥ 5000 | 50 to 250 | 250 to 1000 | 1000 to 5000 |  | 50 to 250 |
| COc1cc(C(=O)N2CCN(C)CC2)ccc1Nc1ncc2c(n1)n1c(cc3ccccc31)c(=O)n2C [Compound I-12] | 1000 to 5000 | 1000 to 5000 | 50 to 250 | 1000 to 5000 | 250 to 1000 |  | 1000 to 5000 |
| COc1cc(N2CCC(C(N)=O)CC2)ccc1Nc1ncc2c(n1)n1c(cc3ccccc31)c(=O)n2C [Compound I-20] | 50 to 250 | 250 to 1000 | 50 to 250 | 1000 to 5000 | 1000 to 5000 |  | 50 to 250 |
| CCn1c(=O)c2cc3ccccc3n2c2nc(Nc3ccc(N4CCN(C)CC4)cc3)ncc21 [Compound I-26] |  |  | 50 to 250 |  |  |  | 50 to 250 |
| CCN1CCN(c2ccc(Nc3ncc4c(n3)n3c(cc5ccccc53)c(=O)n4C)cc2C(F)(F)F)CC1 [Compound I-25] |  |  | ≤ 50 |  |  |  | 50 to 250 |

From US11279707B2, “NEK inhibitors and methods of use” (DANA-FARBER CANCER INSTITUTE, INC., priority 2017, dated 2022)
